Tests used:
MRL/MpJ-Faslpr/J mouse = MRL/MpJ-Faslpr/J mouse model of systemic lupus erythematosus; type: in vivo; details: 30 mg/kg; week 4
IgG = IgG production by SLE patient PBMC (ELISA); details: Homo sapiens, read-out: IgG IC50 (nM) SLE (n = 3)
Description: Supernatants (from section 8.2.3) were harvested and analyzed by ELISA for IgG and IgM production (ZeptoMetrix Corp. Buffalo, N.Y.).
B Cell Differentiation Protocol: Enriched B cells were isolated from fresh buffy-coat (leukocyte enriched units) by Ficoll-Hypaque density gradient centrifugation followed by incubation with EasySep negative selection human B cell enrichment kit (Stem cell technologies). In brief, 2×10^8/ml PBMC were mixed with 4 ml of Robosep buffer and transferred to a 14 mL polystyrene round bottom tube. EasySep Human B cell enrichment cocktail (200 μL) was added per tube, vortexed and incubated at room temperature for 10 minutes. […] After cells were counted, an aliquot was removed for FACS analysis and the remaining cells were used for culture. […]
CD19+ peripheral blood human B cells from normal donors, or total peripheral blood mononuclear cell PBMC for patients with systemic lupus erythematosus (“SLE”), were cultured in the presence of interleukin (“IL”)-2, IL-10, IL15, TLR9 agonist, and CD40 L for 4 days, followed by IL-2, IL-6, IL-10 and IL-15 for another 3 days. Cells were counted, viability assessed, and expression of CD20, CD38, CD44, and CD83 were measured by flow cytometry. Plasmablast lineage factors IRF-4, BLIMP-1, XBP-1, and IgJ, and germinal center markers PAX-5 and BCL-6 were measured by qRT-PCR. […] Secreted immunoglobulins IgG and IgM were measured by ELISA.

CD19+ B cells = assay: B cell differentiation assay: CD20/CD38 phenotyping by flow cytometry; type: cell-based, human; details: for CD20−CD38++ plasmablasts/plasma cells, % / CD20+CD38− activated B cells, % / CD20+CD38+ intermediated cells, %: 3 donors; for plasmablast population (CD20-CD38+): day 7, DMSO control 30.4%
Description: Differentiated B cells (see section 8.2.3) were harvested, counted, and aliquoted at about 1×10^6 cells or less per 4 mL tube. The cells were washed 1× with stain buffer. Next, the cells then were blocked with 10% human serum/PBS for 20-30 minutes. Following blocking, the cells were centrifuged for 5 minutes at 1200 rpm and supernatants discarded. In the 100 μL of remaining buffer, 20 μL of various BD Pharmigen flow antibodies were added according to experimental design. The cells were stained for 20-30 minutes at 4° C. Then the cells were washed 2× with stain buffer and supernatants discarded. Next, 500 μL of stain buffer or PBS was added to the tubes. The samples were immediately analyzed or put at 4° C. overnight. Cells were stained with mouse anti-human CD20 and CD38, CD19 and CD27, or respective isotype controls. All samples were analyzed using a FACSCanto flow cytometer, FACSDiva analysis software (BD Bioscience), and FlowJo Analysis software.
(§1) Immunophenotyping For Flow Cytometric Analysis: Cells were stained using multicolor direct immunofluorescence stain for flow cytometric analysis. Surface staining was performed before cell fixation and permeabilization. Cells (50 μl; 1×10^6 cells/ml in washing buffer, 2% FBS with 0.1% NaN3 in PBS) were used for each staining. The cells were stained with isotype control mAb ([…]) and multicolor FITC-conjugated anti-CD20 mAb and PE-conjugated anti-CD38 mAb, or PerCP-Cy5.5 conjugated anti-CD44 mAb, PE-conjugated anti-CD83 mAb were used for day 4 activated B cells (CD20+CD38-cells), and day 4 PBs and day 7 PBs (CD20-CD38+), and other staining, analyzed by flow cytometry as per manufacturer's instructions. The intracellular staining of transcription factor proteins (BCL-6, IRF-4, BLIMP-1, PAX-5 and XBP-1) and IgJ was performed according to the manufacturer's recommendations.

[1] = system: CTGF, PAI-1, COL1A1, TGFB1; assay: Tsk-1 mouse skin TGF-β pathway gene overexpression (qRT-PCR); type: in vivo; details: 30 mg/kg
Excerpt: Next, to examine the effect of the compound on the overexpression of TGF-β pathway genes in Tsk-1 mouse skin, qRT-PCR was used to measure mRNA levels for six genes: CTGF, PAI-1, COL1A1, α-smooth muscle actin (ALPHA SMA), cartilage oligomeric protein 1 (COMP), and TGFB1. Overexpression was defined as the excess mRNA levels observed in Tsk-1 mouse skin compared to normal pa/pa mouse skin. […] PAI-1 and TGFB1 gene overexpression was not inhibited by the compound.

[2] = system: BCL-6, IRF-4, BLIMP-1, PAX5 and XBP-1; assay: Transcription factor protein expression by intracellular flow cytometry, normal B cell differentiation; type: cell-based, human
Description: as §1, with “recommendations. Flow cytometric analysis was performed with a FACSCanto using FACSDiva 6 (BD Biosciences). For data analysis, Flowjo (Tree Star) software was used.” for “recommendations.”
B cells were cultured as described in above and cells were harvested at day 4, day 7 for immunofluoresence staining. The cells were first stained for CD20 and CD38, and after cell permeabilization, stained for BCL-6, IRF-4, BLIMP-1, PAX5 and XBP-1, then were analyzed by gating on whole lymphocytes.

[3] = system: Human umbilical vascular endothelial cells; assay: Human umbilical vascular endothelial cell tube formation assay; type: cell-based; details: VEGF-induced; at 10 μM; p<0.05 vs stimulated DMSO control
Description: Human Umbilical Vascular Endothelial Cell Tube Formation Assay: Compounds were tested in the growth factor-induced HUVEC tube formation assay. The tube formation plates were incubated at 37° C. for 30 minutes for matrigel to polymerize. The HUVECs were starved in 0.1% BSA basal EBM2 medium for 5 hours after washing with the same medium 3 times. The cells were trypsinized and centrifuged. Then 25 μL of 4× serially diluted compounds (10, 1, 0.1, 0.01, 0.001, 0.0001, 0.00001 μM) were added in duplicate with 50 μL of 2×10^4 cells/well to tube formation plates coated with matrigel. […] of 4×VEGF (final concentration=25 ng/mL) or bFGF (final concentration=10 ng/mL) were added to the plates. The cells were then incubated overnight (˜18 hours) at 37° C. in a humidified incubator. The tubule webs were stained with calcein AM at […] in 2% FBS/HBSS for 30 minutes and images taken by fluorescence microscopy. The tubules were quantified by the MetaMorph tube formation software program for tube area and tube length.
The percentage inhibition of cell proliferation, tube formation, migration, and invasion was calculated by subtracting the result for unstimulated DMSO control from test sample results, averaging all replicates, and normalizing to the growth factor-stimulated DMSO control (0% inhibition). The IC50 values were calculated by using GraphPad Prism 5.0.

[4] = Tsk-1 vs pa/pa mouse skin mRNA, p≤0.001

In the case of `O=C1CC[C@H](N2Cc3c(OCc4ccc(CN5CCOCC5)cc4)cccc3C2=O)C(=O)N1` [Test compound, (S)-3-[4-(4-morphlin-4-ylmethylbenzyloxy)-1-oxo-1,3-dihydro-isoindo-2-yl]piperidine-2,6-dione], the “Splenic B cells, increase” value (MRL/MpJ-Faslpr/J mouse) is reported as 37%, the “anti-double stranded DNA autoantibody level, decrease” value (MRL/MpJ-Faslpr/J mouse) is reported as 25% and the “peripheral blood B cells” value (MRL/MpJ-Faslpr/J mouse) is reported as “no change”. The IC50 (IgG) was 3.2 nM, the “percentage of CD20+CD38- activated B cells” value (CD19+ B cells) was “increased” and the “percentage of CD20-CD38+ plasmablasts” value (CD19+ B cells) was “dose-dependently reduced”. For the same compound, the “percentage of large size cells (gate p2)” value (CD19+ B cells; Day 4, 2 nM, DMSO 35.5%) was 31.2%, the “CD20−CD38++ plasmablasts/plasma cells, %” value (CD19+ B cells; Day 4, 20 nM, DMSO 25.9 ± 2.4) was 4.8 ± 2.3% and the “CD20−CD38++ plasmablasts/plasma cells, %” value (CD19+ B cells; Day 4, 20 nM, DMSO 25.9 ± 2.4, listed as test compound) was 4.8%. For the same compound, the “CD20+CD38− activated B cells, %” value (CD19+ B cells; Day 4, 20 nM, DMSO 42.1 ± 1.5) was 57.9 ± 11.5%, the “CD20+CD38− activated B cells, %” value (CD19+ B cells; Day 4, 20 nM, DMSO 42.1 ± 1.5, listed as test compound) was 57.9% and the “percentage of large size cells (gate p2)” value (CD19+ B cells; Day 4, 20 nM, DMSO 35.5%) was 23.1%. For the same compound, the “percentage of large size cells (gate p2)” value (CD19+ B cells; Day 4, 200 nM, DMSO 35.5%) was 20.4%, the “CD20+CD38+ intermediated cells, %” value (CD19+ B cells; Day 4, DMSO 14.7 ± 3.1) was 18.3 ± 5.5% and the “percentage of large size cells (gate p2)” value (CD19+ B cells; Day 7, 2 nM, DMSO 34.9%) was 34.9%. For the same compound, the “CD20+CD38− activated B cells, %” value (CD19+ B cells; Day 7, 20 nM, DMSO 12.5 ± 5.7) was 50.5 ± 8.6%, the “CD20+CD38− activated B cells, %” value (CD19+ B cells; Day 7, 20 nM, DMSO 12.5 ± 5.7, listed as test compound) was 50.5% and the “CD20−CD38++ plasmablasts/plasma cells, %” value (CD19+ B cells; Day 7, 20 nM, DMSO 54.8 ± 5.0) was 9.7 ± 5.4%. The “CD20−CD38++ plasmablasts/plasma cells, %” value (CD19+ B cells; Day 7, 20 nM, DMSO 54.8 ± 5.0, listed as test compound) was 9.7%, the “percentage of large size cells (gate p2)” value (CD19+ B cells; Day 7, 20 nM, DMSO 34.9%) was 19.9% and the “percentage of large size cells (gate p2)” value (CD19+ B cells; Day 7, 200 nM, DMSO 34.9%) was 11.94%. For the same compound, the “CD20+CD38+ intermediated cells, %” value (CD19+ B cells; Day 7, DMSO 22.8 ± 5.1) was 23 ± 7.7%, the “plasmablast population (CD20-CD38+)” value (CD19+ B cells; 2 nM) was 27.3% and the “plasmablast population (CD20-CD38+)” value (CD19+ B cells; 20 nM) was 2.1%. For the same compound, the “plasmablast population (CD20-CD38+)” value (CD19+ B cells; 200 nM) was 0.4%, the “large size cell population (gate p2)” value (CD19+ B cells; normal B cell differentiation assay) was “dose-dependently depleted” and the PAI-1 gene overexpression [1] was “not inhibited”. The TGFB1 gene overexpression [1] was “not inhibited”, the “reduction of overexpression of COL1A1” value [1, 4] was 129% and the “reduction of overexpression of CTGF” value [1, 4] was 79%. For the same compound, the BLIMP-1 protein expression ([2]; Day 4, 20 nM) was “significantly decreased”, the IRF-4 protein expression ([2]; Day 4, 20 nM) was “significantly decreased” and the XBP-1 protein expression ([2]; Day 4, 20 nM) was “significantly decreased”. For the same compound, the BCL-6 protein expression ([2]; Day 7, 20 nM) was “significantly increased”.
For `O=C1CC[C@@H](N2Cc3c(OCc4ccc(CN5CCOCC5)cc4)cccc3C2=O)C(=O)N1` [R-enantiomer, (R)-3-[4-(4-morphlin-4-ylmethylbenzyloxy)-1-oxo-1,3-dihydro-isoindo-2-yl]piperidine-2,6-dione], the “tube area and length” value [3] was “significant inhibition”.

— patent publication US11524950B2, “Treatment of immune-related and inflammatory diseases” (Celgene Corporation, priority 2012, dated 2022)
